{"source": "patent US7138361B2", "about": "“Herbicidal heterocycles” (E. I. du Pont de Nemours and Company, priority 2000, dated 2006)", "format_in_all_cases": "in vivo", "key": {"[1]": {"system": "Nightshade", "assay": "Test C preemergence", "settings": "Rate 500 g/ha, visual evaluation after 12 to 14 days"}, "[2]": {"system": "rice (Oryza saliva)", "assay": "Test C flooded paddy test", "settings": "for Plant response rating, Rice: flooded paddy test, scale 0 to 100 (0 no effect, 100 complete control)", "how_it_was_run": "(§1)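 Plants were grown to the 2-leaf stage under flooded paddy conditions and treated. They were then kept in a greenhouse for 12 to 14 days and visually rated against untreated controls on a 0–100 scale, where 0 is no effect and 100 is complete control.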"}, "[3]": {"system": "duck salad (Heteranthera limosa)", "assay": "Test C flooded paddy test", "settings": "for Ducksalad plant response rating: Flooded Paddy, scale 0 to 100, 0 no effect, 100 complete control; for Plant response rating, Ducksalad: flooded paddy test, scale 0 to 100 (0 no effect, 100 complete control)", "how_it_was_run": "as §1"}, "[4]": {"system": "smallflower flatsedge (Cyperus difformis)", "assay": "Test C flooded paddy test", "settings": "for Flatsedge plant response rating: Flooded Paddy, scale 0 to 100, 0 no effect, 100 complete control; for Plant response rating, Flatsedge: flooded paddy test, scale 0 to 100 (0 no effect, 100 complete control)", "how_it_was_run": "as §1"}, "[5]": {"system": "velvetleaf (Abutilon theophrasti)", "assay": "Test C preemergence", "how_it_was_run": "(§2)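 Seeds are planted and treated before emergence; for the postemergence test, plants at 1- to 4-leaf stage (2–18 cm) receive the same formulation, a solvent blend containing surfactant. Plants stay in the greenhouse 12–14 days, then response is scored visually from 0 (none) to 100 (complete control).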"}, "[6]": {"system": "goosegrass (Eleusine indica)", "assay": "Test C preemergence", "how_it_was_run": "as §2"}, "[7]": {"system": "kochia (Kochia scoparia)", "assay": "Test C preemergence", "how_it_was_run": "as §2"}, "[8]": {"system": "lambsquarters (Chenopodium album)", "assay": "Test C preemergence", "how_it_was_run": "as §2"}, "[9]": {"system": "common ragweed (Ambrosia elatior)", "assay": "Test C preemergence", "how_it_was_run": "as §2"}, "[10]": {"system": "cocklebur (Xanthium strumarium)", "assay": "Test C preemergence", "how_it_was_run": "as §2"}, "[11]": {"system": "bermudagrass (Cynodon dactylon)", "assay": "Test C preemergence", "how_it_was_run": "as §2"}, "[12]": {"system": "Sunflower", "assay": "Test C preemergence", "settings": "Rate 125 g/ha; scale 0 to 100, 0 no effect, 100 complete control"}, "[13]": {"system": "Surinam grass (Brachiaria decumbens)", "assay": "Test C preemergence", "how_it_was_run": "as §2"}, "[14]": {"system": "woolly cupgrass (Eriochloa villosa)", "assay": "Test C preemergence", "how_it_was_run": "as §2"}, "[15]": {"system": "corn (Zea mays)", "assay": "Test C preemergence", "how_it_was_run": "as §2"}, "[16]": {"system": "giant foxtail (Setaria faberii)", "assay": "Test C preemergence", "how_it_was_run": "as §2"}, "[17]": {"system": "soybean (Glycine max)", "assay": "Test C preemergence", "how_it_was_run": "as §2"}, "[18]": {"system": "pigweed (Amaranthus retroflexus)", "assay": "Test C preemergence", "how_it_was_run": "as §2"}, "[19]": {"system": "yellow nutsedge (Cyperus esculentus)", "assay": "Test C preemergence", "how_it_was_run": "as §2"}, "[20]": {"system": "Nightshade", "assay": "Test C preemergence"}, "[21]": {"system": "morningglory (Ipomoea hederacea)", "assay": "Test C preemergence", "how_it_was_run": "as §2"}, "[22]": {"system": "johnsongrass (Sorghum halepense)", "assay": "Test C preemergence", "how_it_was_run": "as §2"}, "[23]": {"system": "crabgrass (Digitaria sanguinalis)", "assay": "Test C preemergence", "how_it_was_run": "as §2"}, "[24]": {"settings": "Rate 125 g/ha, scale 0 to 100, 0 no effect, 100 complete control"}, "[25]": {"settings": "preemergence, Rate 62 g/ha, scale 0 to 100"}, "[26]": {"settings": "preemergence, Rate 500 g/ha, visual evaluation after 12 to 14 days"}, "[27]": {"settings": "preemergence, Rate 250 g/ha, scale 0 to 100, 0 no effect, 100 complete control"}}, "data": [{"smiles": "COc1cc(N2CCC(n3ccc(C(C)(C)C)n3)C2=O)ccc1Cl", "note": "(stereo not drawn) [Compound 117]", "values": [{"measurement": "Plant response rating (0 to 100), Nightshade", "setting": "[1]", "result": 100}, {"measurement": "Rice plant response rating", "setting": "[2]; Flooded Paddy, Rate 500 g/ha, scale 0 to 100, 0 no effect, 100 complete control", "result": 30}, {"measurement": "Plant response rating, Rice", "setting": "[2]; Rate 62 g/ha", "result": 20}, {"measurement": "Plant response rating, Rice", "setting": "[2]; Rate 125 g/ha", "result": 30}, {"measurement": "Ducksalad plant response rating", "setting": "[3]; Rate 250 g/ha", "result": 100}, {"measurement": "Ducksalad plant response rating", "setting": "[3]; Rate 500 g/ha", "result": 100}, {"measurement": "Plant response rating, Ducksalad", "setting": "[3]; Rate 62 g/ha", "result": 0}, {"measurement": "Plant response rating, Ducksalad", "setting": "[3]; Rate 125 g/ha", "result": 100}, {"measurement": "Flatsedge plant response rating", "setting": "[4]; Rate 250 g/ha", "result": 100}, {"measurement": "Flatsedge plant response rating", "setting": "[4]; Rate 500 g/ha", "result": 100}, {"measurement": "Plant response rating, Flatsedge", "setting": "[4]; Rate 62 g/ha", "result": 100}, {"measurement": "Plant response rating, Flatsedge", "setting": "[4]; Rate 125 g/ha", "result": 100}, {"measurement": "Plant response rating, Velvetleaf", "setting": "[5]; [24]", "result": 90}, {"measurement": "Plant response rating, Velvetleaf", "setting": "[5]; [25]", "result": 80}, {"measurement": "Plant response rating (0 to 100), Velvetleaf", "setting": "[5]; [26]", "result": 100}, {"measurement": "Plant response rating, Velvetleaf", "setting": "[5]; [27]", "result": 100}, {"measurement": "Plant response rating, Goosegrass", "setting": "[6]; [24]", "result": 100}, {"measurement": "Plant response rating, Goosegrass", "setting": "[6]; [25]", "result": 100}, {"measurement": "Plant response rating (0 to 100), Goosegrass", "setting": "[6]; [26]", "result": 100}, {"measurement": "Plant response rating, Goosegrass", "setting": "[6]; [27]", "result": 100}, {"measurement": "Plant response rating, Kochia", "setting": "[7]; [24]", "result": 100}, {"measurement": "Plant response rating, Kochia", "setting": "[7]; [25]", "result": 90}, {"measurement": "Plant response rating (0 to 100), Kochia", "setting": "[7]; [26]", "result": 100}, {"measurement": "Plant response rating, Kochia", "setting": "[7]; [27]", "result": 100}, {"measurement": "Plant response rating, Lambsquarters", "setting": "[8]; [24]", "result": 100}, {"measurement": "Plant response rating, Lambsquarters", "setting": "[8]; [25]", "result": 100}, {"measurement": "Plant response rating (0 to 100), Lambsquarters", "setting": "[8]; [26]", "result": 100}, {"measurement": "Plant response rating, Lambsquarters", "setting": "[8]; [27]", "result": 100}, {"measurement": "Plant response rating, Ragweed, Common", "setting": "[9]; [24]", "result": 100}, {"measurement": "Plant response rating, Ragweed, Common", "setting": "[9]; [25]", "result": 100}, {"measurement": "Plant response rating (0 to 100), Ragweed, Common", "setting": "[9]; [26]", "result": 100}, {"measurement": "Plant response rating, Ragweed, Common", "setting": "[9]; [27]", "result": 100}, {"measurement": "Plant response rating, Cocklebur", "setting": "[10]; [24]", "result": 10}, {"measurement": "Plant response rating, Cocklebur", "setting": "[10]; [25]", "result": 0}, {"measurement": "Plant response rating (0 to 100), Cocklebur", "setting": "[10]; [26]", "result": 85}, {"measurement": "Plant response rating, Cocklebur", "setting": "[10]; [27]", "result": 50}, {"measurement": "Plant response rating, Bermudagrass", "setting": "[11]; [24]", "result": 100}, {"measurement": "Plant response rating, Bermudagrass", "setting": "[11]; [25]", "result": 100}, {"measurement": "Plant response rating (0 to 100 where 0 is no effect and 100 is complete control), Bermudagrass", "setting": "[11]; [26]", "result": 100}, {"measurement": "Plant response rating, Bermudagrass", "setting": "[11]; [27]", "result": 100}, {"measurement": "Plant response rating, Sunflower", "setting": "[12]", "result": 40}, {"measurement": "Plant response rating, Surinam grass", "setting": "[13]; [24]", "result": 10}, {"measurement": "Plant response rating, Surinam grass", "setting": "[13]; [25]", "result": 10}, {"measurement": "Plant response rating (0 to 100), Surinam grass", "setting": "[13]; [26]", "result": 100}, {"measurement": "Plant response rating, Surinam grass", "setting": "[13]; [27]", "result": 75}, {"measurement": "Plant response rating, Cupgrass, Woolly", "setting": "[14]; [24]", "result": 100}, {"measurement": "Plant response rating, Cupgrass, Woolly", "setting": "[14]; [25]", "result": 80}, {"measurement": "Plant response rating (0 to 100), Cupgrass, Woolly", "setting": "[14]; [26]", "result": 100}, {"measurement": "Plant response rating, Cupgrass, Woolly", "setting": "[14]; [27]", "result": 100}, {"measurement": "Plant response rating, Corn", "setting": "[15]; [24]", "result": 30}, {"measurement": "Plant response rating, Corn", "setting": "[15]; [25]", "result": 0}, {"measurement": "Plant response rating (0 to 100), Corn", "setting": "[15]; [26]", "result": 50}, {"measurement": "Plant response rating, Corn", "setting": "[15]; [27]", "result": 45}, {"measurement": "Plant response rating, Foxtail, Giant", "setting": "[16]; [24]", "result": 0}, {"measurement": "Plant response rating, Foxtail, Giant", "setting": "[16]; [25]", "result": 100}, {"measurement": "Plant response rating (0 to 100), Foxtail, Giant", "setting": "[16]; [26]", "result": 100}, {"measurement": "Plant response rating, Foxtail, Giant", "setting": "[16]; [27]", "result": 100}, {"measurement": "Plant response rating, Soybean", "setting": "[17]; [24]", "result": 100}, {"measurement": "Plant response rating, Soybean", "setting": "[17]; [25]", "result": 100}, {"measurement": "Plant response rating (0 to 100), Soybean", "setting": "[17]; [26]", "result": 100}, {"measurement": "Plant response rating, Soybean", "setting": "[17]; [27]", "result": 100}, {"measurement": "Plant response rating, Pigweed", "setting": "[18]; [24]", "result": 100}, {"measurement": "Plant response rating, Pigweed", "setting": "[18]; [25]", "result": 100}, {"measurement": "Plant response rating (0 to 100), Pigweed", "setting": "[18]; [26]", "result": 30}, {"measurement": "Plant response rating, Pigweed", "setting": "[18]; [27]", "result": 100}, {"measurement": "Plant response rating, Nutsedge", "setting": "[19]; [24]", "result": 0}, {"measurement": "Plant response rating, Nutsedge", "setting": "[19]; [25]", "result": 0}, {"measurement": "Plant response rating (0 to 100), Nutsedge", "setting": "[19]; [26]", "result": 0}, {"measurement": "Plant response rating, Nutsedge", "setting": "[19]; [27]", "result": 0}, {"measurement": "Plant response rating, Nightshade", "setting": "[20]; Rate 62 g/ha, scale 0 to 100", "result": 100}, {"measurement": "Plant response rating, Nightshade", "setting": "[20]; [24]", "result": 100}, {"measurement": "Plant response rating, Nightshade", "setting": "[20]; Rate 250 g/ha, scale 0 to 100, 0 no effect, 100 complete control", "result": 100}, {"measurement": "Plant response rating, Morningglory", "setting": "[21]; [24]", "result": 10}, {"measurement": "Plant response rating, Morningglory", "setting": "[21]; [25]", "result": 0}, {"measurement": "Plant response rating (0 to 100), Morningglory", "setting": "[21]; [26]", "result": 100}, {"measurement": "Plant response rating, Morningglory", "setting": "[21]; [27]", "result": 100}, {"measurement": "Plant response rating, Johnsongrass", "setting": "[22]; [24]", "result": 50}, {"measurement": "Plant response rating, Johnsongrass", "setting": "[22]; [25]", "result": 45}, {"measurement": "Plant response rating (0 to 100), Johnsongrass", "setting": "[22]; [26]", "result": 90}, {"measurement": "Plant response rating, Johnsongrass", "setting": "[22]; [27]", "result": 50}, {"measurement": "Plant response rating, Crabgrass", "setting": "[23]; [24]", "result": 100}, {"measurement": "Plant response rating, Crabgrass", "setting": "[23]; [25]", "result": 100}, {"measurement": "Plant response rating (0 to 100), Crabgrass", "setting": "[23]; [26]", "result": 100}, {"measurement": "Plant response rating, Crabgrass", "setting": "[23]; [27]", "result": 100}]}]}
